What was measured:
S. aureus ATCC 6538 = test: agar diffusion test (Test System II, multi-resistant germs); type: cell-based, Staphylococcus aureus
Method in brief: (§1)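 Discs loaded with 10, 50 or 100 μg compound (dissolved in methanol or distilled water) placed on Müller-Hinton agar II inoculated with McFarland 0.5 suspension. Incubated 18-20 h at 37 °C. Inhibition zone diameter read as activity.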

S. aureus 38418 = test: as above; type: cell-based, Staphylococcus aureus
Method in brief: as §1

S. epidermidis 125 = test: as above; type: cell-based, Staphylococcus epidermidis
Method in brief: as §1

[1] = test system: Bacillus megaterium SBUG 1152; test: agar diffusion test (Test System 1, antimicrobial effect); type: cell-based
Method in brief: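 Paper discs loaded with 10 μg, 50 μg or 100 μg of test substance (methanol or water solution) placed on nutrient agar seeded with 10^6 cells of a 17-h B. megaterium culture. After 20 h at 37° C., zone of inhibition measured as diameter in mm.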

S. aureus 33490 = test: agar diffusion test (Test System II, multi-resistant germs); type: cell-based, Staphylococcus aureus; parameters: key: r = resistant (no detectable zone of inhibition)
Method in brief: as §1

[2] = test system: S. aureus North Germany strain; test: as above; type: cell-based, Staphylococcus aureus; parameters: key: r = resistant (no detectable zone of inhibition)
Method in brief: as §1

S. aureus 34289 = test: as above; type: cell-based, Staphylococcus aureus; parameters: key: r = resistant (no detectable zone of inhibition)
Method in brief: as §1

S. aureus 36881 = test: as above; type: cell-based, Staphylococcus aureus; parameters: key: r = resistant (no detectable zone of inhibition)
Method in brief: as §1

S. aureus 526 = test: as above; type: cell-based, Staphylococcus aureus; parameters: key: r = resistant (no detectable zone of inhibition)
Method in brief: as §1

S. aureus 39105 = test: as above; type: cell-based, Staphylococcus aureus; parameters: key: r = resistant (no detectable zone of inhibition)
Method in brief: as §1

S. aureus 520 = test: as above; type: cell-based, Staphylococcus aureus; parameters: key: r = resistant (no detectable zone of inhibition)
Method in brief: as §1

E. faecalis 945 = test: as above; type: cell-based, Enterococcus faecalis; parameters: key: r = resistant (no detectable zone of inhibition)
Method in brief: as §1

S. epidermidis 1068 = test: as above; type: cell-based, Staphylococcus epidermidis
Method in brief: as §1

S. epidermidis 847 = test: as above; type: cell-based, Staphylococcus epidermidis
Method in brief: as §1

S. epidermidis 563 = test: as above; type: cell-based, Staphylococcus epidermidis
Method in brief: as §1

S. epidermidis 1071 = test: as above; type: cell-based, Staphylococcus epidermidis
Method in brief: as §1

B. subtilis AWD 166 = test: agar diffusion test (antimicrobial effect); type: cell-based, Bacillus subtilis
Method in brief: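 Inhibition zone diameters (mm) read after 20 h incubation at 37 °C. Discs carried 10 μg, 50 μg or 100 μg of test substance, dissolved in methanol or distilled water, on agar inoculated with B. subtilis AWD 166 for dense but separate colonies.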

[3] = logP value by HPLC according to Donovan et al.; details: HPLC with methanol/0.1% phosphoric acid gradient, pH 2
Procedure: • Operating temperature 18-24° C. • Flow 1.5 mL/min • Linear gradient (methanol/0.1% phosphoric acid pH 2) from 10% to 100% methanol in 9.4 min, equilibrium time between 2 runs 6 min
ca. 0.5 mg of analyte is added to 0.5 ml of a standard solution (440 mg methyl phenyl sulfonate and 380 μl toluene in 150 mL methanol). 2 μl of this sample solution is injected.
Because the distribution coefficients of the two standards running in each test are known, the distribution coefficient of the analytes can be determined from the relationships of the analyte/standard retention times.

[4] = test system: Escherichia coli SBUG 1135; test: agar diffusion test (Test System 1, antimicrobial effect); type: cell-based
Method in brief: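 Disc diffusion: compound at 10 μg, 50 μg, 100 μg on sensi-discs, three per plate of nutrient agar seeded with ~10^6 E. coli SBUG 1135 (overnight culture, 17 h, 37° C, diluted 1:100). After 20 h incubation at 37° C, zone diameter recorded in mm.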

[5] = test system: Enterococcus faecalis 769; test: agar diffusion test (Test System II, multi-resistant germs); type: cell-based; parameters: key: r = resistant (no detectable zone of inhibition)
Method in brief: as §1

[6] = test system: Staphylococcus aureus 315; test: as above; type: cell-based; parameters: key: r = resistant (no detectable zone of inhibition)
Method in brief: as §1

chromatographic logP [3]: -3.28
SMILES: N[C@@H](C(=O)N[C@@H]1C(=O)N2C(C(=O)O)=C(Cl)CS[C@H]12)c1ccccc1 [2c, Cefaclor, reference compound]
Diameter of zone of inhibition (S. aureus ATCC 6538; Quantity n 0.019): 30 mm
Diameter of zone of inhibition (S. aureus ATCC 6538; Quantity n 0.1): 38 mm
Diameter of zone of inhibition (S. aureus ATCC 6538; Quantity n 0.19): 40 mm
Diameter of zone of inhibition (S. aureus 38418; Quantity n [mol] 0.019): 26 mm
Diameter of zone of inhibition (S. aureus 38418; Quantity n [mol] 0.1): 34 mm
Diameter of zone of inhibition (S. aureus 38418; Quantity n [mol] 0.19): 38 mm
Diameter of zone of inhibition (S. epidermidis 125; Quantity n 0.019): 26 mm
Diameter of zone of inhibition (S. epidermidis 125; Quantity n 0.1): 34 mm
Diameter of zone of inhibition (S. epidermidis 125; Quantity n 0.19): 36 mm
Diameter of zone of inhibition ([1]; Quantity n 0.019): 36^1 mm
Diameter of zone of inhibition ([1]; Quantity n 0.1): 38 mm
Diameter of zone of inhibition ([1]; Quantity n 0.19): 40 mm
Diameter of zone of inhibition (S. aureus 33490; Quantity n [μmol] 0.019): 24 mm
Diameter of zone of inhibition (S. aureus 33490; Quantity n [μmol] 0.1): 30 mm
Diameter of zone of inhibition (S. aureus 33490; Quantity n [μmol] 0.19): 32 mm
Diameter of zone of inhibition ([2]; Quantity n 0.019): r
Diameter of zone of inhibition ([2]; Quantity n 0.1): 10 mm
Diameter of zone of inhibition ([2]; Quantity n 0.19): 14 mm
Diameter of zone of inhibition (S. aureus 34289; Quantity n [mol] 0.019): r
Diameter of zone of inhibition (S. aureus 34289; Quantity n [mol] 0.1): r
Diameter of zone of inhibition (S. aureus 34289; Quantity n [mol] 0.19): 10 mm
Diameter of zone of inhibition (S. aureus 36881; Quantity n 0.019): r
Diameter of zone of inhibition (S. aureus 36881; Quantity n 0.1): 12 mm
Diameter of zone of inhibition (S. aureus 36881; Quantity n 0.19): 18 mm
Diameter of zone of inhibition (S. aureus 526; Quantity n 0.019): r
Diameter of zone of inhibition (S. aureus 526; Quantity n 0.1): 8 mm
Diameter of zone of inhibition (S. aureus 526; Quantity n 0.19): 12 mm
Diameter of zone of inhibition (S. aureus 39105; Quantity n 0.019): 22 mm
Diameter of zone of inhibition (S. aureus 39105; Quantity n 0.1): 24 mm
Diameter of zone of inhibition (S. aureus 39105; Quantity n 0.19): 28 mm
Diameter of zone of inhibition (S. aureus 520; Quantity n [mol] 0.019): r
Diameter of zone of inhibition (S. aureus 520; Quantity n [mol] 0.1): 10 mm
Diameter of zone of inhibition (S. aureus 520; Quantity n [mol] 0.19): 14 mm
Diameter of zone of inhibition (E. faecalis 945; Quantity n 0.019): r
Diameter of zone of inhibition (E. faecalis 945; Quantity n 0.1): 8 mm
Diameter of zone of inhibition (E. faecalis 945; Quantity n 0.19): 12 mm
Diameter of zone of inhibition (S. epidermidis 1068; Quantity n 0.019): 22 mm
Diameter of zone of inhibition (S. epidermidis 1068; Quantity n 0.1): 24 mm
Diameter of zone of inhibition (S. epidermidis 1068; Quantity n 0.19): 30 mm
Diameter of zone of inhibition (S. epidermidis 847; Quantity n [mol] 0.019): 14 mm
Diameter of zone of inhibition (S. epidermidis 847; Quantity n [mol] 0.1): 24 mm
Diameter of zone of inhibition (S. epidermidis 847; Quantity n [mol] 0.19): 28 mm
Diameter of zone of inhibition (S. epidermidis 563; Quantity n 0.019): 30 mm
Diameter of zone of inhibition (S. epidermidis 563; Quantity n 0.1): 34 mm
Diameter of zone of inhibition (S. epidermidis 563; Quantity n 0.19): 36 mm
Diameter of zone of inhibition (S. epidermidis 1071; Quantity n 0.019): 28 mm
Diameter of zone of inhibition (S. epidermidis 1071; Quantity n 0.1): 30 mm
Diameter of zone of inhibition (S. epidermidis 1071; Quantity n 0.19): 32 mm
Diameter of zone of inhibition (B. subtilis AWD 166; Quantity n 0.019): 36 mm
Diameter of zone of inhibition (B. subtilis AWD 166; Quantity n 0.1): 38 mm
Diameter of zone of inhibition (B. subtilis AWD 166; Quantity n 0.19): 40 mm
Diameter of zone of inhibition ([4]; Quantity n 0.019): 24 mm
Diameter of zone of inhibition ([4]; Quantity n 0.1): 30 mm
Diameter of zone of inhibition ([4]; Quantity n 0.19): 32 mm
Diameter of zone of inhibition ([5]; Quantity n 0.019): r^2
Diameter of zone of inhibition ([5]; Quantity n 0.1): 8 mm
Diameter of zone of inhibition ([5]; Quantity n 0.19): 14 mm
Diameter of zone of inhibition ([6]; Quantity n 0.019): r
Diameter of zone of inhibition ([6]; Quantity n 0.1): 10 mm
Diameter of zone of inhibition ([6]; Quantity n 0.19): 12 mm

Source: US20110040086A1, “Novel Beta-Lactam Antibiotics, Methods for Their Production, and Their Use” (DRITTE PATENTPORTFOLIO BETEILIGUNGSGESELLSCHAFT MB, priority 2007, published 2011)
